Measurements as given in US20250214991A1 (Oncopia Therapeutics, Inc. d/b/a/ SK Life Science Labs, priority 2022, published 2025).

Key:
IKZF2 = IKZF2 (Homo sapiens (Human), UniProt Q96SW2+Q9UKS7); test: In vitro IKZF2 HiBit Assay (HEK293T Flp-in-HiBiT cells); format: cell-based; conditions: HEK293T Flp-in-HiBiT cells, 6 hrs incubation; for DC50: read-out: IKZF2 HiBit DC50; for Dmax: HEK-293T, read-out: IKZF2 HiBit Dmax (%)
Method: In Vitro IKZF2 HiBit Assay
The HiBiT protein tagging system was applied to modified HEK293T Flp-in-HiBiT cells (polyclone) via a CRISPR/Cas9-mediated insertion of the HiBiT peptide tag (Promega™) to the N-terminus of the IKZF2 gene locus (Neon™ transfection system). Test and reference compounds are diluted from 1 mM at 3 folds for 11 doses. 25 nL of diluted compound is transfered to assay plates (Corning3570) using ECHO550, the final DMSO concentration @ 0.1%. The cells are seeded in 3000/25 μL/well to compound plates. It is then incubated for 6 hrs in TC incubator. The amount of Nano-Glo® HiBiT lytic reagent needed to perform the desired experiments is calculated. The Nano-Glo® HiBiT lytic reagent is brought to room temperature. The LgBiT protein is diluted to 1:100 and the Nano-Glo® HiBiT lytic substrate is diluted to 1:50 into an appropriate volume of room temperature Nano-Glo® HiBiT lytic buffer. 15 μL of the detection reagent (or without LgBiT) is dispensed to corresponding well according to the layout. The plate is then shaked for 10 mins at room temperature. After briefly centrifuge, the plate is read on Envision. At the indicated timepoints, the Nano-Glo® HiBiT lytic detection system (Promega™) was utilized for detecting bioluminescence of the HiBiT tag in treated cells: abundance of the tag is proportionate to the level of luminescence. Following normalization to DMSO, dose-response curves were plotted (GraphPad Prism) to determine the concentration points at which 50% of HiBiT-Helios degradation was achieved by each compound. The extent of degradation (range of luminescence) from the highest to lowest concentration points was calculated to determine the Dmax.
(§1) DC50, A: <1 nM; B: 1-10 nM; C: 10-100 nM; D: 100-1000 nM; E: 1000-10000 nM; F: >10,000 nM. Dmax, A: >80%; B: 60-80%; C: 40-60%; D: 20-40%; E: <20%.

IKZF1 = IKZF1 (Homo sapiens (Human), UniProt Q13422+Q96SW2); test: In vitro IKZF1 HiBit Assay (HEK293T Flp-in-HiBiT-IKZF1 stable cell line); format: cell-based; conditions: HEK293T Flp-in-HiBiT-IKZF1 stable cell line, 6 hrs incubation; for DC50: read-out: IKZF1 HiBit DC50; for Dmax: HEK-293T, read-out: IKZF1 HiBit Dmax (%)
Method: In Vitro IKZF1 HiBit Assay
The HiBiT protein tagging system was applied to modified Cells: modified HEK293T Flp-in-HiBiT-IKZF1 stable cell line (polyclone) via a CRISPR/Cas9-mediated insertion of the HiBiT peptide tag (Promega™) to the N-terminus of the […] gene locus (Neon™ transfection system).
25 nL of diluted compound is transferred to assay plates (Corning3571) using ECHO550, the final DMSO concentration @ 0.1%. The cells are seeded in 3000/25 μL/well to compound plates. The plates are incubated for 6 hrs in TC incubator. The amount of Nano-Glo® HiBiT lytic reagent needed to perform the desired experiments is calculated. The Nano-Glo® HiBiT lytic reagent is brought to room temperature. The LgBiT protein is diluted to 1:100 and the Nano-Glo® HiBiT lytic substrate is brought to 1:50 into an appropriate volume of room temperature Nano-Glo® HiBiT lytic buffer. 15 μL of the detection reagent (or without LgBiT) is dispensed to corresponding well according to the layout. The plate is shaked for 10 mins at room temperature. After briefly centrifuge, the plateis read on Envision. At the indicated timepoints, the Nano-Glo® HiBiT lytic detection system (Promega™) was utilized for detecting bioluminescence of the HiBiT tag in treated cells: abundance of the tag is proportionate to the level of luminescence. Following normalization to DMSO, dose-response curves were plotted (GraphPad Prism) to determine the concentration points at which 50% of HiBiT-Ikaros degradation was achieved by each compound. The extent of degradation (range of luminescence) from the highest to lowest concentration points was calculated to determine the Dmax.
as §1

Chain of IKZF1 (Q13422 whole entry): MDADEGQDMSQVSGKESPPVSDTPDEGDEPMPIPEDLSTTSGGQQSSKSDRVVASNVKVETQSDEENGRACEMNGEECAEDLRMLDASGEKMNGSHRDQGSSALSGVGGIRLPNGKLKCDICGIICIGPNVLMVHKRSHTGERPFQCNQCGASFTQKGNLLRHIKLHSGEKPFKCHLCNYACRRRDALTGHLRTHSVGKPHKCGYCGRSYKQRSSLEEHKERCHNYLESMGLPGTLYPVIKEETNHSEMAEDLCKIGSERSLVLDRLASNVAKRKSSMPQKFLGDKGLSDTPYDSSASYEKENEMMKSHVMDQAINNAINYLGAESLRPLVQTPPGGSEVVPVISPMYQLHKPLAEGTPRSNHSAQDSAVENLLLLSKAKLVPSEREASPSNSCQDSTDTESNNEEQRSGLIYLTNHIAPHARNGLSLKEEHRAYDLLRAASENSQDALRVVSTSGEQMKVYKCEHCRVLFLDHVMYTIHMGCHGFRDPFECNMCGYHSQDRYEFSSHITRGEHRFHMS
Chain of IKZF1 (Q96SW2 whole entry): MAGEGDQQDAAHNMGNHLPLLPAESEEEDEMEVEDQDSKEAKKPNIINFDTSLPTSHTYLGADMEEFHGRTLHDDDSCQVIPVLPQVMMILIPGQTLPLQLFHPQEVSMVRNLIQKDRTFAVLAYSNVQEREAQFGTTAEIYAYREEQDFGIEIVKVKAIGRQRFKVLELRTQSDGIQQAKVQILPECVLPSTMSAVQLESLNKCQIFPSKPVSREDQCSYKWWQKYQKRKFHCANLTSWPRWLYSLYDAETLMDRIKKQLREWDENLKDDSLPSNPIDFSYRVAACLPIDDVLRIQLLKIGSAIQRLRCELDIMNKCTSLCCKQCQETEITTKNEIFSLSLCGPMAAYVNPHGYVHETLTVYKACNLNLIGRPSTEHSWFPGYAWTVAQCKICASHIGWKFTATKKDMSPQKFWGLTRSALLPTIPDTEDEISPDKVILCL
Chain of IKZF1 (Q16531 2-1140 partner): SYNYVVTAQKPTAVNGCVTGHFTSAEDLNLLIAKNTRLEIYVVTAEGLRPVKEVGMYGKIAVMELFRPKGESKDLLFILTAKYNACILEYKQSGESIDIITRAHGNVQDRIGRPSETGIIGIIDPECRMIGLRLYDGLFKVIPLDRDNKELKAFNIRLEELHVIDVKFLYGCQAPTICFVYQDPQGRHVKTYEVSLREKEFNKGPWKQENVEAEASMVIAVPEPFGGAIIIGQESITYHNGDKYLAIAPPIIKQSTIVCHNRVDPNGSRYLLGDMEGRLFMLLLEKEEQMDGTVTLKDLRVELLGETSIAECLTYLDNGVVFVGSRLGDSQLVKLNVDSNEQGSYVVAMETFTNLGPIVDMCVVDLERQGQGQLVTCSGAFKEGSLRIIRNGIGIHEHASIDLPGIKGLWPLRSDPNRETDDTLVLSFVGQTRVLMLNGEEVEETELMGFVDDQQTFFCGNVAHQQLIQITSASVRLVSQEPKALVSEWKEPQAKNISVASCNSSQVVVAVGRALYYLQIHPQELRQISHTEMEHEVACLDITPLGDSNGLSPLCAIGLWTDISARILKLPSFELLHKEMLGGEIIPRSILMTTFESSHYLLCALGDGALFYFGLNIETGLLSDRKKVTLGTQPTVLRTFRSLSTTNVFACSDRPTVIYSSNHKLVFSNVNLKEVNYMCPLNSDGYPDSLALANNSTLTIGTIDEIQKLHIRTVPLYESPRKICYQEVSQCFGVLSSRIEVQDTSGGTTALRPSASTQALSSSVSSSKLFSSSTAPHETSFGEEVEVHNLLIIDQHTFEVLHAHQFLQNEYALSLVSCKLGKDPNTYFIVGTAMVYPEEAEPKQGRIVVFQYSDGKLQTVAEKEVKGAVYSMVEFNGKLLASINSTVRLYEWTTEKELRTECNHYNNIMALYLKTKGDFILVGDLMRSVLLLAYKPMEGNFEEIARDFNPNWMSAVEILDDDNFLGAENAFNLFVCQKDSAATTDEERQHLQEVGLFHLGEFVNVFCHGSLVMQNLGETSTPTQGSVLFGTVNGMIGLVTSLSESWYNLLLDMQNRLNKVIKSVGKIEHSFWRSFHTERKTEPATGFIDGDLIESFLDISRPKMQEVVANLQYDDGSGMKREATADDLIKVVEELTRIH
Chain of IKZF2 (Q9UKS7 whole entry): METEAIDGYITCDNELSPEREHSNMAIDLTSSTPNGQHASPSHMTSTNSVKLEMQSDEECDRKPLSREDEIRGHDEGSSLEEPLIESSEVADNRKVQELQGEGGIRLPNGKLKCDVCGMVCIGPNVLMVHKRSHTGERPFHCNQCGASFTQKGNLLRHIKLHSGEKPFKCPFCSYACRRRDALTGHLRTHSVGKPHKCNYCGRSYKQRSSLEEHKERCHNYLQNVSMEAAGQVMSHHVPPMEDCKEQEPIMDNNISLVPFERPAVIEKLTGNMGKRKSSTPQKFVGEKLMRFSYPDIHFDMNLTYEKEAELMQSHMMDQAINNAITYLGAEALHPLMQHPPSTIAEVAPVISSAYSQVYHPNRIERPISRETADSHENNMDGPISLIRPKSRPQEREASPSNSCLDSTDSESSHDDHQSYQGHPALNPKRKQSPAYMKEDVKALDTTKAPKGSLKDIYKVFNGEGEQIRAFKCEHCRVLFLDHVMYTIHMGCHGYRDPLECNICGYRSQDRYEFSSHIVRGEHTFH
Chain of IKZF2 (Q96SW2 whole entry): as the sequence (Q96SW2 whole entry) above
Chain of IKZF2 (Q16531 2-1140 partner): as the sequence (Q16531 2-1140 partner) above

SMILES	DC50 (IKZF2) [nM]	Dmax (IKZF2) [%]	DC50 (IKZF1) [nM]	Dmax (IKZF1) [%]
O=C1CCC(N2Cc3cc(-c4cc(CN5CC(CO)C5)c5ccn(C6CC6)c5n4)ccc3C2=O)C(=O)N1 (centres unmarked) [Example 152, 3-(5-(1-cyclopropyl-4-((3-(hydroxymethyl)azetidin-1-yl)methyl)-1H-pyrrolo[2,3-b]pyridin-6-yl)-1-oxoisoindolin-2-yl) piperidine-2,6-dione]	10 to 100	> 80	100 to 1000	20 to 40
Cc1cc(-c2ccc3c(c2)CN(C2CCC(=O)NC2=O)C3=O)nc2oc(CN3CCCC3)nc12 (centres unmarked) [Example 198, 3-(5-(7-methyl-2-(pyrrolidin-1-ylmethyl)oxazolo [5,4-b]pyridin-5-yl)-1-oxoisoindolin-2-yl) piperidine-2,6-dione]	10 to 100	40 to 60	> 10000	< 20
O=C1CCC(N2Cc3cc(-c4cc(CN5CCCC5)c5cccc(C6CCC6)c5n4)ccc3C2=O)C(=O)N1 (centres unmarked) [Example 241, 3-(5-(8-cyclobutyl-4-(pyrrolidin-1-ylmethyl)quinolin-2-yl)-1-oxoisoindolin-2-yl) piperidine-2,6-dione]	10 to 100	40 to 60	> 10000	< 20
O=C1CCC(N2Cc3cc(-c4cc(CN5CCCC5)c5nccc(N6CCC6)c5n4)ccc3C2=O)C(=O)N1 (centres unmarked) [Example 243, 3-(5-(8-(azetidin-1-yl)-4-(pyrrolidin-1-ylmethyl)-1,5-naphthyridin-2-yl)-1-oxoisoindolin-2-yl) piperidine-2,6-dione]	10 to 100	60 to 80	100 to 1000	20 to 40
O=C1CCC(N2Cc3cc(-c4cc(CN5CCCC5)c5nccc(NC6CC6)c5n4)ccc3C2=O)C(=O)N1 (centres unmarked) [Example 244, 3-(5-(8-(cyclopropylamino)-4-(pyrrolidin-1-ylmethyl)-1,5-naphthyridin-2-yl)-1-oxoisoindolin-2-yl) piperidine-2,6-dione]	10 to 100	40 to 60	> 10000	< 20
O=C1CCC(N2Cc3cc(-c4cc(CN5CCCC5)c5nccc(C6CCC6)c5n4)ccc3C2=O)C(=O)N1 (centres unmarked) [Example 247, 3-(5-(8-cyclobutyl-4-(pyrrolidin-1-ylmethyl)-1,5-naphthyridin-2-yl)-1-oxoisoindolin-2-yl) piperidine-2,6-dione]	10 to 100	40 to 60	> 10000	< 20
O=C1CCC(N2Cc3cc(-c4cc(CN5CCCC5)c5nccc(OC6COC6)c5n4)ccc3C2=O)C(=O)N1 (centres unmarked) [Example 251, 3-(5-(8-(oxetan-3-yloxy)-4-(pyrrolidin-1-ylmethyl)-1,5-naphthyridin-2-yl)-1-oxoisoindolin-2-yl) piperidine-2,6-dione]	10 to 100	60 to 80	> 10000	< 20
O=C1CCC(N2Cc3cc(-c4cc(CN5CCCC5C(F)F)c5ccn(C6COC6)c5n4)ccc3C2=O)C(=O)N1 (centres unmarked) [Example 252, 3-(5-(4-((2-(difluoromethyl)pyrrolidin-1-yl)methyl)-1-(oxetan-3-yl)-1H-pyrrolo[2,3-b]pyridin-6-yl)-1-oxoisoindolin-2-yl) piperidine-2,6-dione]	10 to 100	40 to 60	> 10000	< 20

Results, then the compound that gave them:

DC50 (IKZF2) [nM]	Dmax (IKZF2) [%]	DC50 (IKZF1) [nM]	Dmax (IKZF1) [%]	SMILES
1 to 10	> 80	> 10000	< 20	O=C1CCC(N2Cc3cc(-c4cc(CN5CCCC5)c5c(C(F)(F)F)n[nH]c5n4)ccc3C2=O)C(=O)N1 (centres unmarked) [Example 134, 3-(1-oxo-5-(4-(pyrrolidin-1-ylmethyl)-3-(trifluoromethyl)-1H-pyrazolo[3,4-b]pyridin-6-yl)isoindolin-2-yl) piperidine-2,6-dione]
1 to 10	> 80	> 10000	< 20	O=C1CCC(N2Cc3cc(-c4cc(CN5CC(O)C5)c5ccn(C6CC6)c5n4)ccc3C2=O)C(=O)N1 (centres unmarked) [Example 135, 3-(5-(1-cyclopropyl-4-((3-hydroxyazetidin-1-yl)methyl)-1H-pyrrolo[2,3-b]pyridin-6-yl)-1-oxoisoindolin-2-yl) piperidine-2,6-dione]
10 to 100	20 to 40	> 10000	< 20	CS(=O)(=O)CCn1ccc2c(CN3CCCC3)cc(-c3ccc4c(c3)CN(C3CCC(=O)NC3=O)C4=O)nc21 (centres unmarked) [Example 136, 3-(5-(1-(2-(methylsulfonyl)ethyl)-4-(pyrrolidin-1-ylmethyl)-1H-pyrrolo[2,3-b]pyridin-6-yl)-1-oxoisoindolin-2-yl) piperidine-2,6-dione]
1 to 10	> 80	10 to 100	20 to 40	CC(C)C1CN(Cc2cc(-c3ccc4c(c3)CN(C3CCC(=O)NC3=O)C4=O)nc3[nH]ccc23)CC1O (centres unmarked) [Example 137, 3-(5-(4-((3-hydroxy-4-isopropylpyrrolidin-1-yl)methyl)-1H-pyrrolo[2,3-b]pyridin-6-yl)-1-oxoisoindolin-2-yl) piperidine-2,6-dione]
1 to 10	> 80	100 to 1000	20 to 40	CC(C)CC1CN(Cc2cc(-c3ccc4c(c3)CN(C3CCC(=O)NC3=O)C4=O)nc3[nH]ccc23)CC1O (centres unmarked) [Example 138, 3-(5-(4-((3-hydroxy-4-isobutylpyrrolidin-1-yl)methyl)-1H-pyrrolo[2,3-b]pyridin-6-yl)-1-oxoisoindolin-2-yl) piperidine-2,6-dione]
10 to 100	60 to 80	> 10000	< 20	CNC(=O)Cn1ccc2c(CN3CCCC3)cc(-c3ccc4c(c3)CN(C3CCC(=O)NC3=O)C4=O)nc21 (centres unmarked) [Example 150, 2-(6-(2-(2,6-dioxopiperidin-3-yl)-1-oxoisoindolin-5-yl)-4-(pyrrolidin-1-ylmethyl)-1H-pyrrolo[2,3-b]pyridin-1-yl)-N-methylacetamide]
< 1	> 80	10 to 100	40 to 60	CC(C)CC1CCN(Cc2cc(-c3ccc4c(c3)CN(C3CCC(=O)NC3=O)C4=O)nc3[nH]ccc23)C1 (centres unmarked) [Example 153, 3-(5-(4-((3-isobutylpyrrolidin-1-yl)methyl)-1H-pyrrolo[2,3-b]pyridin-6-yl)-1-oxoisoindolin-2-yl) piperidine-2,6-dione]
1 to 10	> 80	10 to 100	40 to 60	Cn1nc(N)c2nc(-c3ccc4c(c3)CN(C3CCC(=O)NC3=O)C4=O)cc(CN3CCCC3)c21 (centres unmarked) [Example 183, 3-(5-(3-amino-1-methyl-7-(pyrrolidin-1-ylmethyl)-1H-pyrazolo[4,3-b]pyridin-5-yl)-1-oxoisoindolin-2-yl) piperidine-2,6-dione]
1 to 10	> 80	1 to 10	40 to 60	O=C1CCC(N2Cc3cc(-c4cc(CN5CCCC5)c5[nH]nc(C6CC6)c5n4)ccc3C2=O)C(=O)N1 (centres unmarked) [Example 202, 3-(5-(3-cyclopropyl-7-(pyrrolidin-1-ylmethyl)-1H-pyrazolo[4,3-b]pyridin-5-yl)-1-oxoisoindolin-2-yl) piperidine-2,6-dione]
